Test results reported in US6737383B1, “Herbicidal oxadiazolidines” (priority 1999, dated 2004).

Columns and labels:
[1] = system: cotton; assay: Test C postemergence cotton; format: in vivo, Gossypium hirsutum; settings: 0 to 100 scale, 0 no effect, 100 complete control
Procedure, shortened: (§1)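 Foliar postemergence treatment of greenhouse plants grown in 60:40 sandy loam:potting mix; compounds delivered in non-phytotoxic solvent with surfactant. Evaluation is visual, 0–100, after ~14–21 d.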

[2] = system: giant foxtail; assay: Test C postemergence giant foxtail; format: in vivo, Setaria faberii; settings: 0 to 100 scale, 0 no effect, 100 complete control
Procedure, shortened: as §1

[3] = system: large crabgrass; assay: Test C postemergence large crabgrass; format: in vivo, Digitaria sanguinalis; settings: 0 to 100 scale, 0 no effect, 100 complete control
Method: (§2) Compounds evaluated in this test were formulated in a non-phytotoxic solvent mixture which included a surfactant and applied to plants that were grown for various periods of time before treatment (postemergence application). A mixture of sandy loam soil and greenhouse potting mix in a 60:40 ratio was used for the postemergence test.
Plantings of these crops and weed species were adjusted to produce plants of appropriate size for the postemergence test. All plant species were grown using normal greenhouse practices. Crop and weed species include arrowleaf sida (Sida rhombifolia), barnyardgrass (Echinochloa crus-galli), cocklebur (Xanthium strumarium), common ragweed (Ambrosia elatior), corn (Zea mays), cotton (Gossypium hirsutum), eastern black nightshade (Solanum ptycanthum), fall panicum (Panicum dichotomiflorum), field bindweed (Convolvulus arvensis), giant foxtail (Setaria faberii), hairy beggarticks (Bidens pilosa), ivyleaf morningglory (Ipomoea hederacea), johnsongrass (Sorghum halepense), ladysthumb smartweed (Polygonum persicaria), lambsquarters (Chenopodium album), large crabgrass (Digitaria sanguinalis), purple nutsedge (Cyperus rotundus), redroot pigweed (Amaranthus retroflexus), soybean (Glycine max), surinam grass (Brachiaria decumbens), velvetleaf (Abutilon theophrasti) and wild poinsettia (Euphorbia heterophylla).
Treated plants and untreated controls were maintained in a greenhouse for approximately 14, to 21 days, after which all treated plants were compared to untreated controls and visually evaluated. Plant response ratings, summarized in Table C, were based upon a 0 to 100 scale where 0 was no effect and 100 was complete control. A dash response (−) means no test result.

[4] = system: wild poinsettia; assay: Test C postemergence wild poinsettia; format: in vivo, Euphorbia heterophylla; settings: 0 to 100 scale, 0 no effect, 100 complete control
Procedure, shortened: as §1

[5] = system: annual bluegrass; assay: Test E annual bluegrass; format: in vivo, Poa annua; settings: Postemergence
Method: as §2, with “in the 1- to 4-leaf stage” for “grown for various periods of time before treatment”
(§3) Plantings of these crops and weed species were adjusted to produce plants of appropriate size for the postemergence test. All plant species were grown using normal greenhouse practices. Crop and weed species include annual bluegrass (Poa annua), blackgrass (Alopecurus myosuroides), black nightshade (Solanum nigra), chickweed (Stellaria media), common poppy (Papaver rhoeas), deadnettle (Lamium amplexicaule), downy brome (Bromus tectorum), field violet (Viola arvensis), galium (Galium aparine), green foxtail (Setaria viridis), Italian ryegrass (Lolium multiflorum), jointed goatgrass (Aegilops cylindrica), kochia (Kochia scoparia), lambsquarters (Chenopodium album), littleseed canarygrass (Phalaris minor), rape (Brassica napus), redroot pigweed (Amaranthus retroflexus), Russian thistle (Salsola kali), scentless chamomile (Matricaria inodora), spring barley (Hordeum vulgare), sugar beet (Beta vulgaris), sunflower (Helianthus annuus), ivyleaf speedwell (Veronica hederaefolia), spring wheat (Triticum aestivum), winter wheat (Triticum aestivum), wild buckwheat (Polygonum convolvulus), wild mustard (Sinapis arvensis), wild oat (Avena fatua), windgrass (Apera spica-venti) and winter barley (Hordeum vulgare).
(§4) Treated plants and untreated controls were maintained in a greenhouse for approximately 21 to 28 days, after which all treated plants were compared to untreated controls and visually evaluated. […] A dash response (-) means no test result.

[6] = system: Italian ryegrass; assay: Test E Italian ryegrass; format: in vivo, Lolium multiflorum; settings: Postemergence
Method: as §2, with “in the 1- to 4-leaf stage” for “grown for various periods of time before treatment”
as §3, §4

[7] = system: spring barley; assay: Test E spring barley; format: in vivo, Hordeum vulgare; settings: Postemergence
Procedure, shortened: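 Greenhouse-grown plants are treated (postemergence: 1- to 4-leaf stage, sandy loam/potting mix 60:40), then evaluated visually versus untreated controls some 21 to 28 days later.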

[8] = system: chickweed; assay: Test E chickweed; format: in vivo, Stellaria media; settings: Preemergence
[9] = system: redroot pigweed; assay: Test E redroot pigweed; format: in vivo, Amaranthus retroflexus; settings: Preemergence
[10] = system: morningglory; assay: Test A morningglory; format: in vivo, Ipomoea spp.; settings: 0 to 10 scale where 0 is no effect and 10 is complete control
Method: Seeds of barnyardgrass (Echinochloa crus-galli), crabgrass (Digitaria spp.), morningglory (Ipomoea spp.), and velvetleaf (Abutilon theophrasti) were planted into a sandy loam soil and treated preemergence by soil drench with test chemicals formulated in a non-phytotoxic solvent mixture which includes a surfactant At the same time, these crop and weed species were also treated postemergence sprayed to runoff, with test chemicals formulated in the same manner.
Plants ranged in height from two to eighteen cm and were in the one to two leaf stage for the postemergence treatment. Treated plants and untreated controls were maintained in a greenhouse for approximately eleven days, after which all treated plants were compared to untreated controls and visually evaluated for injury. Plant response ratings, summarized in Table A, are based on a 0 to 10 scale where 0 is no effect and 10 is complete control.

[11] = Rate 500 g/ha, 0 to 100 scale, 0 no effect, 100 complete control
[12] = Rate 250 g/ha, 0 to 100 scale where 0 is no effect and 100 is complete control
[13] = Rate 125 g/ha, 0 to 100 scale (0 no effect, 100 complete control)
[14] = Rate 500 g/ha, 0 to 100 scale where 0 is no effect and 100 is complete control
[15] = Rate 250 g/ha, 0 to 100 scale (0 no effect, 100 complete control)

CC(C)N(C(=O)n1oc(=O)n(C(C)C)c1=O)c1ccc(F)cc1 [Compound 131]
Plant response rating Cotton ([1]; Rate 140 g/ha): 10 | Plant response rating Cotton ([1]; Rate 280 g/ha): 10 | Plant response rating Cotton ([1]; Rate 560 g/ha): 40 | Plant response rating Cotton ([1]; Rate 1120 g/ha): 65 | Plant response rating, Giant foxtail ([2]; Rate 140 g/ha): 10 | Plant response rating, Giant foxtail ([2]; Rate 280 g/ha): 40 | Plant response rating, Giant foxtail ([2]; Rate 560 g/ha): 60 | Plant response rating, Giant foxtail ([2]; Rate 1120 g/ha): 80 | Plant response rating Large crabgrass ([3]; Rate 140 g/ha): 0 | Plant response rating Large crabgrass ([3]; Rate 280 g/ha): 20 | Plant response rating Large crabgrass ([3]; Rate 560 g/ha): 70 | Plant response rating Large crabgrass ([3]; Rate 1120 g/ha): 85 | Plant response rating Wild poinsettia ([4]; Rate 140 g/ha): 0 | Plant response rating Wild poinsettia ([4]; Rate 280 g/ha): 10 | Plant response rating Wild poinsettia ([4]; Rate 560 g/ha): 30 | Plant response rating Wild poinsettia ([4]; Rate 1120 g/ha): 80 | Plant response rating, Annual bluegras ([5]; Rate 62 g/ha, 0 to 100 scale): 55 | Plant response rating, Annual bluegras ([5]; Rate 125 g/ha, 0 to 100 scale): 40 | Plant response rating, Annual bluegras [5, 11]: 70 | Annual bluegras plant response rating [5, 12]: 40 | Plant response rating, I. Ryegrass ([6]; Rate 62 g/ha, 0 to 100 scale): 50 | Plant response rating, I. Ryegrass ([6]; Rate 125 g/ha, 0 to 100 scale): 0 | Plant response rating, I. Ryegrass [6, 11]: 40 | I. Ryegrass plant response rating [6, 12]: 30 | Plant response rating, Spring Barley ([7]; Rate 62 g/ha, 0 to 100 scale): 5 | Plant response rating, Spring Barley ([7]; Rate 125 g/ha, 0 to 100 scale): 0 | Plant response rating, Spring Barley [7, 11]: 20 | Spring Barley plant response rating [7, 12]: 0 | Plant response rating, Chickweed [8, 13]: 100 | Chickweed plant response rating (0 to 100 scale) ([8]; Rate 250 g/ha): 100 | Plant response rating, Chickweed [8, 14]: 100 | Plant response rating, Redroot pigweed [9, 13]: 100 | Redroot pigweed plant response rating (0 to 100 scale) ([9]; Rate 250 g/ha): 100 | Plant response rating, Redroot pigweed [9, 14]: 95

Cc1cccc(Cl)c1-n1c(=O)on(C(=O)N(c2ccc(F)cc2)C(C)C)c1=O [Compound 53]
Plant response rating, Morningglory ([10]; Postemergence, Rate 1000 g/ha): 0 | Plant response rating, Morningglory ([10]; Pre-emergence, Rate 2000 g/ha): 0

CCn1c(=O)on(C(=O)N(c2ccccc2)C(C)C)c1=O [Compound 117]
Plant response rating Cotton ([1]; Rate 140 g/ha): 5 | Plant response rating Cotton ([1]; Rate 280 g/ha): 10 | Plant response rating Cotton ([1]; Rate 560 g/ha): 30 | Plant response rating Cotton ([1]; Rate 1120 g/ha): 60 | Plant response rating, Giant foxtail ([2]; Rate 140 g/ha): 0 | Plant response rating, Giant foxtail ([2]; Rate 280 g/ha): 60 | Plant response rating, Giant foxtail ([2]; Rate 560 g/ha): 75 | Plant response rating, Giant foxtail ([2]; Rate 1120 g/ha): 80 | Plant response rating Large crabgrass ([3]; Rate 140 g/ha): 0 | Plant response rating Large crabgrass ([3]; Rate 280 g/ha): 20 | Plant response rating Large crabgrass ([3]; Rate 560 g/ha): 60 | Plant response rating Large crabgrass ([3]; Rate 1120 g/ha): 80 | Plant response rating Wild poinsettia ([4]; Rate 140 g/ha): 0 | Plant response rating Wild poinsettia ([4]; Rate 280 g/ha): 0 | Plant response rating Wild poinsettia ([4]; Rate 560 g/ha): 0 | Plant response rating Wild poinsettia ([4]; Rate 1120 g/ha): 0

CC(C)N(C(=O)n1oc(=O)n(C(C)C)c1=O)c1ccc(Cl)cc1 [Compound 114]
Plant response rating, Morningglory ([10]; Postemergence, Rate 1000 g/ha): 10 | Plant response rating, Morningglory ([10]; Pre-emergence, Rate 2000 g/ha): 6 | Plant response rating, Annual bluegras ([5]; Rate 125 g/ha, 0 to 100 scale): 0 | Plant response rating, Annual bluegras [5, 15]: 30 | Plant response rating, Annual bluegras [5, 11]: 60 | Plant response rating, I. Ryegrass ([6]; Rate 125 g/ha, 0 to 100 scale): 10 | Plant response rating, I. Ryegrass [6, 15]: 20 | Plant response rating, I. Ryegrass [6, 11]: 20 | Plant response rating, Spring Barley ([7]; Rate 125 g/ha, 0 to 100 scale): 20 | Plant response rating, Spring Barley [7, 15]: 30 | Plant response rating, Spring Barley [7, 11]: 35 | Plant response rating, Chickweed [8, 13]: 15 | Plant response rating, Chickweed ([8]; Rate 250 g/ha, 0 to 100 scale): 50 | Plant response rating, Chickweed [8, 14]: 100 | Plant response rating, Redroot pigweed [9, 13]: 50 | Plant response rating, Redroot pigweed ([9]; Rate 250 g/ha, 0 to 100 scale): 65 | Plant response rating, Redroot pigweed [9, 14]: 100

C=CCn1c(=O)on(C(=O)N(c2ccc(Cl)cc2)C(C)C)c1=O [Compound 105]
Plant response rating, Chickweed ([8]; Rate 250 g/ha, 0 to 100 scale): 85

CC(C)N(C(=O)n1oc(=O)n(N(C)C)c1=O)c1ccccc1 [Compound 225]
Plant response rating, Morningglory ([10]; Postemergence, Rate 1000 g/ha): 10 | Plant response rating, Morningglory ([10]; Pre-emergence, Rate 2000 g/ha): 8

CCc1cccc(C)c1-n1c(=O)on(C(=O)N(c2ccc(F)cc2)C(C)C)c1=O [Compound 52]
Plant response rating, Morningglory ([10]; Postemergence, Rate 1000 g/ha): 1 | Plant response rating, Morningglory ([10]; Pre-emergence, Rate 2000 g/ha): 0
